# What was measured:
# thrombus formation [1] = assay: Cross-circulation thrombosis model, cannulae connected with latex tubing; survival time of recipient after blocking trachea; format: in vivo, Wistar rats; details: cannula with latex tubing; for Survival time of the recipients, result in words: compared with vehicle/saline treated control animals; for Survival time (min) Mean ± S.E.: recipient rat
# Excerpt: Wistar rats (either sex; weighing 290-310 g) were used throughout the experiments. Animals were housed and cared for in accordance with the Guidelines in force published by CPCSEA (Committee for the Purpose of Control and Supervision of Experiments on Animals), Tamil Nadu, India. Procedures using laboratory animals were approved by the IAEC (Institutional Animal Ethics Committee) of the Research Centre of Nicholas Piramal India Limited, Mumbai, India.
# In one experiment a pair of rats were anesthetized using urethane (1.5 g/kg; Fluka) by intra-peritoneal administration. After anesthetization, one of the jugular veins and carotid arteries of each of the rats were exposed and clamped. Polyethylene cannulae (0.76 mm ID and 1.22 mm OD, polyethylene tubing, each 6.0 cm in length; Portex Ltd) filled with normal saline (0.9%, w/v, sodium chloride, Merck) were introduced into these vessels and secured tightly by tying with cotton thread (No. 40, Madura Coats Ltd., India). Furthermore, trachea of any one of the rats was exposed and a piece of thread was put loosely around it (recipient). Then the arterial cannula of one of the rats was connected to the venous cannula of the other rat and vice versa, using 2.5 cm long piece of latex tubing (0.89 mm ID; PharMed, Cole-Parmer). FIG. 1 schematically illustrates these rats.
# The experiment was initiated by opening the clamps on all the vessels, which initiated cross circulation of blood between the two animals. […] FIG. 2 schematically illustrates these rats.
# Survival was monitored by the animal's effort to respire.
# In another experiment, pairs of rats were treated with antithrombotic/thrombolytic agents selected from the following list:
# The drug suspensions for oral use were prepared in the vehicle, carboxymethyl cellulose (CMC, 0.5% w/v, Sigma), using polyoxyethylenesorbitan monooleate (Tween 80, Sigma) as a wetting agent. Commercially available streptokinase solution was diluted with normal saline to an appropriate concentration for the i.v. use.
# Vehicle/drugs were administered to rats orally at the doses mentioned above, in a volume of 1 ml/kg. With the exception of streptokinase, all other drugs were administered once daily for three consecutive days and the experiment was performed on the third day, one hour after the administration of the last dose. The vehicle-treated animals were used as controls.
# Streptokinase was administered as a continuous infusion at a dose of 60,000 I.U./ml/kg/hour intravenously, through the femoral vein of the recipient and was administered only on the day of experiment. As a source of plasminogen, human plasma was injected to the animal intravenously at a dose of 1 ml/kg, just before blocking the trachea. Streptokinase infusion was initiated two minutes after blocking the trachea of the recipient. Saline-infused animals were used as control for streptokinase-treated animals.
# (§1) The survival time of the recipients in the abovementioned experiments was recorded.
# thrombus formation [2] = assay: Cross-circulation thrombosis model, cannulae connected with damaged rat thoracic aorta; survival time of recipient after blocking trachea; format: in vivo, Wistar rats
# Excerpt: In the present experiment, the piece of latex tubing used in Example 1 was replaced by a piece of rat thoracic aorta with damaged endothelium, so that the anti-thrombotic effect of the compounds could be studied in a near natural situation.
# Maintenance of a patent vasculature is critical to provide blood flow to dependent tissues. […] Following vessel injury, active hemostasis results from vasoconstriction, adherence of activated platelets to damaged endothelium, their aggregation and activation of coagulation enzymes, finally resulting into thrombosis. It has been shown that chronic carbon tetrachloride treatment to rats causes serious damage to vascular endothelial cells and thus the blood vessels get damaged. It was thought of using these damaged vessels, instead of latex tubing (used in Example 1), to connect arterial and venous cannulae of donor and recipient, in order to mimic the physiological process of thrombus formation.
# They were administered carbon tetrachloride (Fluka) in olive oil (Figaro, Spain) (1:1 v/v), 0.5 ml/kg, intraperitoneally, twice a week for eight continuous weeks. […]
# In spite of the blocked trachea, the recipient survived, as long as the oxygenated blood supply from the donor continued. Survival was monitored by the animal's effort to respire. […]
# as §1
# [3] = 20 mg/kg p.o. once daily for three days, 1 h after last dose, CMC control 10.9 ± 0.70
compound,measurement,setting,value
"CC(=O)Oc1ccccc1C(=O)O [Aspirin, acetylsalicylic acid]","Survival time of the recipients, result in words",thrombus formation [1],Significant increase in the survival time
same,Survival time (min) Mean ± S.E.,"thrombus formation [1]; 20 mg/kg p.o. once daily for three days, 1 h after last dose, CMC control 10.9 ± 0.70, 20 mg/kg",45.3 ± 4.40 min
same,"Survival time of the recipient, result in words","thrombus formation [2]; cannula with damaged blood vessel, compared with appropriate control animals",Significant increase in the survival time
same,Survival time (min) Mean ± S.E.,"thrombus formation [2]; recipient rat, cannula with damaged thoracic aorta, 20 mg/kg p.o. once daily for three days, CMC control 5.18 ± 0.99",33.9 ± 4.58 min
"COC(=O)[C@H](c1ccccc1Cl)N1CCc2sccc2C1 [Clopidogrel, Clopidogrel bisulphate]",Survival time (min) Mean ± S.E.,thrombus formation [1]; [3],47.8 ± 3.78 min
OCCN(CCO)c1nc(N2CCCCC2)c2nc(N(CCO)CCO)nc(N3CCCCC3)c2n1 [Dipyridamole],Survival time (min) Mean ± S.E.,thrombus formation [1]; [3],38.5 ± 1.55 min
Streptokinase,"Survival time of the recipients, result in words",thrombus formation [1],significant prolongation of the survival time
same,Survival time (min) Mean ± S.E.,"thrombus formation [1]; 60,000 IU/ml/kg/hr i.v. continuous infusion, human plasma 1 ml/kg i.v., saline control 10.4 ± 0.91",89.5 ± 10.55 min
